Results taken from US8987195B2 (priority 2012, dated 2015).
Like-named read-outs stand apart in the source and are kept apart here.

Experiments:
HCV genotype 1b replicon = assay: HCV replicon assay, genotype 1b replicon EC50; type: cell-based, Hepatitis C virus; conditions: Hepatitis C virus, genotype 1b replicon, read-out: EC50 [gt-1b]
In short: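 Potency comes from a four-parameter fit of signal as percent of DMSO control. Replicon-bearing cells were treated 24-48 hours with a compound dilution series in absence of G418, and replicon RNA was quantified normalized to cyclophilin A RNA, or luciferase read.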

[1] = target: HCV NS3/4A protease genotype 1b (Hepatitis C virus genotype 1b, UniProt P26663); assay: HCV NS3/4A protease time-resolved fluorescence (TRF) assay, Ki against genotype 1b; type: biochemical; conditions: IC50 [gt-1b] (nM), NS3/4A genotype 1b, enzyme 0.2 nM
In short: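 Enzyme 0.2 nM 1b / 0.4 nM A156T / 0.025 nM 3a; 30 min preinc. w/ cpd; 25 nM TRF peptide; 2.5 h RT; ex 340/em 615 time-delayed; 4-param IC50 → Ki = IC50/(1+[S]/KM).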

Compound	EC50 (HCV genotype 1b replicon)	IC50 [1]	EC50 (HCV genotype 1b replicon; K+ salt)	IC50 ([1]; K+ salt)
COc1ccc2nc(C(F)(F)F)c3c(c2c1)[C@@H](N1CCOCC1)C[C@]1(C[C@H]2C(=O)N[C@]4(C(=O)NS(=O)(=O)C5(C)CC5)C[C@H]4/C=C\CCCCC[C@H](NC(=O)OC(C)(C)C)C(=O)N2C1)O3 [Example 65, tert-Butyl((1′S,2R,6S,13aS,14aR,16aS,Z)-9′-methoxy-14a-(((1-methylcyclopropyl)sulfonyl)carbamoyl)-1′-morpholino-5,16-dioxo-5′-(trifluoromethyl) -1′,2′,3,5,6,7,8,9,10,11,13a,14,14a,15,16,16a-hexadecahydro-1H-spiro[cyclopropa[e]pyrrolo[1,2-a][1,4]diazacyclopentadecine-2,3′-pyrano[2,3-c]quinolin]-6-yl)carbamate]	0.148 nM	0.011 nM	–	–
COc1ccc2nc(C(F)(F)F)c3c(c2c1)[C@H](N1CCOCC1)C[C@]1(C[C@H]2C(=O)N[C@]4(C(=O)NS(=O)(=O)C5(C)CC5)C[C@H]4/C=C\CCCCC[C@H](NC(=O)OC(C)(C)C)C(=O)N2C1)O3 [Example 66, tert-Butyl((1′R,2R,6S,13aS,14aR,16aS,Z)-9′-methoxy-14a-(((1-methylcyclopropyl)sulfonyl)carbamoyl)-1′-morpholino-5,16-dioxo-5′-(trifluoromethyl) -1′,2′,3,5,6,7,8,9,10,11,13a,14,14a,15,16,16a-hexadecahydro-1H-spiro[cyclopropa[e]pyrrolo[1,2-α][1,4]diazacyclopentadecine-2,3′-pyrano[2,3-c]quinolin]-6-yl)carbamate]	0.148 nM	0.011 nM	–	–
CC(C)(C)OC(=O)N[C@H]1CCCCC/C=C\C2CC2(C(=O)NS(=O)(=O)C2(C)CC2)NC(=O)C2C[C@]3(CCc4c(c(C5CC5)nc5ccc(F)cc45)O3)CN2C1=O (stereo partly drawn) [Example 68, tert-butyl [(2R,6S,12Z)-5′-cyclopropyl-9′-fluoro-14a-{[(1-methylcyclopropyl)sulfonyl]carbamoyl}-5,16-dioxo-1,1′,2′,5,6,7,8,9,10,11,13a,14,14a,15,16,16a-hexadecahydrospiro[cyclopropa[e]pyrrolo[1,2-a][1,4]diazacyclopentadecine-2,3′-pyrano[2,3-c]quinolin]-6-yl]carbamate]	0.98 nM	0.016 nM	–	–
CC(C)(C)OC(=O)N[C@H]1CCCCC/C=C\C2CC2(C(=O)NS(=O)(=O)C2(C)CC2)NC(=O)C2C[C@]3(CCc4c(c(C5CC5)nc5c(F)cccc45)O3)CN2C1=O (stereo partly drawn) [Example 69, tert-butyl [(2R,6S,12Z)-5′-cyclopropyl-7′-fluoro-14a-{[(1-methylcyclopropyl)sulfonyl]carbamoyl}-5,16-dioxo-1,1′,2′,5,6,7,8,9,10,11,13a,14,14a,15,16,16a-hexadecahydrospiro[cyclopropa[e]pyrrolo[1,2-a][1,4]diazacyclopentadecine-2,3′-pyrano[2,3-c]quinolin]-6-yl]carbamate]	–	–	0.82 nM	0.012 nM
COc1ccc2c3c(c(C4CC4)nc2c1)O[C@]1(CC3)CC2C(=O)NC3(C(=O)NS(=O)(=O)C4(C)CC4)CC3/C=C\CCCCC[C@H](NC(=O)OC(C)(C)C)C(=O)N2C1 (stereo partly drawn) [Example 70, tert-butyl [(2R,6S,12Z)-5′-cyclopropyl-8′-methoxy-14a-{[(1-methylcyclopropyl)sulfonyl]carbamoyl}-5,16-dioxo-1,1′,2′,5,6,7,8,9,10,11,13a,14,14a,15,16,16a-hexadecahydrospiro[cyclopropa[e]pyrrolo[1,2-a][1,4]diazacyclopentadecine-2,3′-pyrano[2,3-c]quinolin]-6-yl]carbamate]	–	–	1.39 nM	0.028 nM
Cc1nc2cc(F)ccc2c2c1O[C@]1(CC2)C[C@H]2C(=O)N[C@]3(C(=O)NS(=O)(=O)C4(C)CC4)C[C@H]3/C=C\CCCCC[C@H](NC(=O)OC(C)(C)C)C(=O)N2C1 [Example 71, tert-butyl [(2R,6S,12Z,13aS,14aR,16aS)-8′-fluoro-5′-methyl-14a-{[(1-methylcyclopropyl)sulfonyl]carbamoyl}-5,16-dioxo-1,1′,2′,5,6,7,8,9,10,11,13a,14,14a,15,16,16a-hexadecahydrospiro[cyclopropa[e]pyrrolo[1,2-a][1,4]diazacyclopentadecine-2,3′-pyrano[2,3-c]quinolin]-6-yl]carbamate]	–	–	0.628 nM	0.023 nM
